Tests used:
[1] = Cytotoxicity against human L02 cells assessed as cell growth inhibition incubated for 72 hrs by Cell Titer-Glo assay
MV4-11 [2] = assay: Cytotoxicity against human MV4-11 cells assessed as cell growth inhibition incubated for 72 hrs by Cell Titer-Glo assay; assay type: functional, cell-based; conditions: MV4-11, 72 h
[3] = Selectivity index, ratio of IC50 for human L02 cells to IC50 for human MV4-11 cells; conditions: L02 cells and MV4-11 cells
MV4-11 [4] = assay: Induction of apoptosis in human MV4-11 cells assessed as late apoptotic cells at 0.1 uM incubated for 24 hrs by Annexin V-FITC/PI staining based flow cytometry (reference value: 0.53 to 1.03 %); assay type: functional
MV4-11 [5] = assay: Induction of apoptosis in human MV4-11 cells assessed as early apoptotic cells at 0.1 uM incubated for 24 hrs by Annexin V-FITC/PI staining based flow cytometry (reference value: 0.015 to 0.39 %); assay type: functional
MV4-11 [6] = assay: Induction of cell cycle arrest in human MV4-11 cells assessed as accumulation of cells at G2/M phase at 0.1 uM incubated for 24 hrs by PI staining based flow cytometry (reference value: 18.56 %); assay type: functional
MV4-11 [7] = assay: Induction of apoptosis in human MV4-11 cells assessed as viable cells at 0.1 uM incubated for 24 hrs by Annexin V-FITC/PI staining based flow cytometry (reference value: 98.58 to 99.04%); assay type: functional; conditions: read-out: Activity
MV4-11 [8] = assay: Induction of cell cycle arrest in human MV4-11 cells assessed as accumulation of cells at G0/G1 phase at 0.1 uM incubated for 24 hrs by PI staining based flow cytometry (reference value: 57.44 %); assay type: functional
MV4-11 [9] = assay: Downregulation of FLT-3 protein expression in human MV4-11 cells incubated for 24 hrs by Western blot analysis; assay type: functional, cell-based; conditions: dose 100-400 nM
MV4-11 [10] = assay: Induction of apoptosis in human MV4-11 cells assessed as necrotic cells at 0.1 uM incubated for 24 hrs by Annexin V-FITC/PI staining based flow cytometry (reference value: 0.05 to 0.24 %); assay type: functional
MV4-11 [11] = assay: Induction of cell cycle arrest in human MV4-11 cells assessed as accumulation of cells at S phase at 0.1 uM incubated for 24 hrs by PI staining based flow cytometry (reference value: 27.58 %); assay type: functional

Row | SMILES | IC50 at 72 h [1] [µM] | IC50 (MV4-11 [2]) [µM] | selectivity ratio [3] | Activity (MV4-11 [4]) [%] | Activity (MV4-11 [5]) [%] | Activity (MV4-11 [6]) [%] | viability at 0.1 µM (MV4-11 [7]) [%] | Activity (MV4-11 [8]) [%] | Activity (MV4-11 [9]) | Activity (MV4-11 [10]) [%] | Activity (MV4-11 [11]) [%]
1 | COc1c(OC)c(-c2c[nH]c3ccc(OCC(=O)c4ccccc4)cc23)c(OC)c(OC)c1-c1c[nH]c2ccccc12 | > 100 | 1.3 | > 74 |  |  |  |  |  |  |  | 
2 | COc1c(O)c(-c2c[nH]c3ccccc23)c2c(c1-c1c[nH]c3ccccc13)OC(C)(C)C=C2 | 11 | 1.2 | 9 |  |  |  |  |  |  |  | 
3 | COc1c(OC)c(-c2c[nH]c3ccccc23)c(OC)c(OC)c1-c1c[nH]c2ccccc12 | > 100 | 5.9 | > 17 |  |  |  |  |  |  |  | 
4 | CCOc1ccc2[nH]cc(-c3c(OC)c(OC)c(-c4c[nH]c5ccccc45)c(OC)c3OC)c2c1 | > 100 | 0.2 | > 500 |  |  |  |  |  |  |  | 
5 | COc1c(O)c(-c2c[nH]c3ccccc23)c(CC=C(C)C)c(OC)c1-c1c[nH]c2ccccc12 | 17 | 1.8 | 9 |  |  |  |  |  |  |  | 
6 | COc1c(OC)c(-c2c[nH]c3ccc(O)cc23)c(OC)c(OC)c1-c1c[nH]c2ccccc12 | > 100 | 12 | > 8 |  |  |  |  |  |  |  | 
7 | COc1ccc2[nH]cc(-c3c(OC)c(OC)c(-c4c[nH]c5ccc(O)cc45)c(OC)c3OC)c2c1 | > 100 | 1.3 | > 75 |  |  |  |  |  |  |  | 
8 | COc1c(OC)c(-c2c[nH]c3ccc(OCC(=O)c4ccc(Cl)c(Cl)c4)cc23)c(OC)c(OC)c1-c1c[nH]c2ccccc12 | > 100 | 0.99 | > 100 |  |  |  |  |  |  |  | 
9 | COc1c(OC)c(-c2cn(C3CCCC3)c3ccccc23)c(OC)c(OC)c1-c1c[nH]c2ccccc12 | > 100 | 0.84 | > 120 |  |  |  |  |  |  |  | 
10 | COc1ccc2[nH]cc(-c3c(OC)c(OC)c(-c4c[nH]c5ccccc45)c(OC)c3OC)c2c1 | > 100 | 6.5 | > 15 |  |  |  |  |  |  |  | 
11 | COc1c(OC)c(-c2cn(CCN3CCOCC3)c3ccccc23)c(OC)c(OC)c1-c1c[nH]c2ccccc12 | > 100 | 0.48 | > 210 |  |  |  |  |  |  |  | 
12 | COc1c(OC)c(-c2c[nH]c3ccc(OC4CCCC4)cc23)c(OC)c(OC)c1-c1c[nH]c2ccccc12 | > 100 | 0.14 | > 710 | 4.36 | 19.09 | 15.55 | 74.7 | 49.99 | Dose-Dependent Effect | 0 | 36.06
13 | COc1c(OC)c(-c2c[nH]c3ccc(OCCN4CCOCC4)cc23)c(OC)c(OC)c1-c1c[nH]c2ccccc12 | > 100 | 0.45 | > 220 |  |  |  |  |  |  |  | 
14 | COc1c(OC)c(-c2c[nH]c3ccc(OCCO[C@@H]4O[C@H](CO)[C@@H](O)[C@H](O)[C@H]4O)cc23)c(OC)c(OC)c1-c1c[nH]c2ccccc12 | > 100 | 0.26 | > 380 | 3.67 | 15.78 | 17.42 | 78 | 52.91 | Dose-Dependent Effect | 0 | 30.68

— ChEMBL document CHEMBL5370636, “Asteriquinones from Aspergillus sp. GZWMJZ-258 and Their Derivatives” (J Nat Prod, 2023)
